Test results as given in ChEMBL document CHEMBL4190403, “Design, synthesis, and biological evaluation of pyrazole derivatives containing acetamide bond as potential BRAFV600E inhibitors” (Bioorg Med Chem Lett, 2018).
Activity calls are given as the source filed them. No cut-off for these calls is given here.

Key:
HT-29 = assay: Antiproliferative activity against human HT-29 cells harboring BRAF V600E mutant after 24 hrs by MTT assay; format: functional, cell-based; conditions: HT-29, 24 h
A-375 [1] = assay: Antiproliferative activity against human A375 cells harboring BRAF V600E mutant after 24 hrs by MTT assay; format: functional, cell-based; conditions: A-375, 24 h
[2] = Antiproliferative activity against human WM1361 cells harboring wild-type BRAF after 48 hrs by MTT assay; format: functional, cell-based; conditions: WM1361, 48 h
A-375 [3] = assay: Induction of apoptosis in human A375 cells assessed as necrotic cells at 1 uM after 24 hrs by Annexin V-FITC/propidium iodide staining based flow cytometry (reference value: 0.635 to 3.12%); format: functional
A-375 [4] = assay: Induction of apoptosis in human A375 cells assessed as early apoptotic cells at 1 uM after 24 hrs by Annexin V-FITC/propidium iodide staining based flow cytometry (reference value: 1.22 to 1.64%); format: functional
A-375 [5] = assay: Induction of apoptosis in human A375 cells assessed as viable cells at 1 uM after 24 hrs by Annexin V-FITC/propidium iodide staining based flow cytometry (reference value: 90.6 to 94.3%); format: functional; conditions: A-375, 24 h, read-out: Activity
A-375 [6] = assay: Induction of apoptosis in human A375 cells assessed as necrotic cells at 3 uM after 24 hrs by Annexin V-FITC/propidium iodide staining based flow cytometry (reference value: 0.635 to 3.12%); format: functional
A-375 [7] = assay: Induction of apoptosis in human A375 cells assessed as late apoptotic cells at 3 uM after 24 hrs by Annexin V-FITC/propidium iodide staining based flow cytometry (reference value: 3.80 to 4.61%); format: functional
A-375 [8] = assay: Induction of apoptosis in human A375 cells assessed as early apoptotic cells at 3 uM after 24 hrs by Annexin V-FITC/propidium iodide staining based flow cytometry (reference value: 1.22 to 1.64%); format: functional
A-375 [9] = assay: Induction of apoptosis in human A375 cells assessed as viable cells at 3 uM after 24 hrs by Annexin V-FITC/propidium iodide staining based flow cytometry (reference value: 90.6 to 94.3%); format: functional; conditions: A-375, 24 h, read-out: Activity
A-375 [10] = assay: Induction of apoptosis in human A375 cells assessed as necrotic cells at 10 uM after 24 hrs by Annexin V-FITC/propidium iodide staining based flow cytometry (reference value: 0.635 to 3.12%); format: functional
A-375 [11] = assay: Induction of apoptosis in human A375 cells assessed as late apoptotic cells at 10 uM after 24 hrs by Annexin V-FITC/propidium iodide staining based flow cytometry (reference value: 3.80 to 4.61%); format: functional
A-375 [12] = assay: Induction of apoptosis in human A375 cells assessed as early apoptotic cells at 10 uM after 24 hrs by Annexin V-FITC/propidium iodide staining based flow cytometry (reference value: 1.22 to 1.64%); format: functional
A-375 [13] = assay: Induction of apoptosis in human A375 cells assessed as necrotic cells at 3 uM after 12 hrs by Annexin V-FITC/propidium iodide staining based flow cytometry (reference value: 0.635 to 3.12%); format: functional
A-375 [14] = assay: Induction of apoptosis in human A375 cells assessed as late apoptotic cells at 3 uM after 12 hrs by Annexin V-FITC/propidium iodide staining based flow cytometry (reference value: 3.80 to 4.61%); format: functional
A-375 [15] = assay: Induction of apoptosis in human A375 cells assessed as early apoptotic cells at 3 uM after 12 hrs by Annexin V-FITC/propidium iodide staining based flow cytometry (reference value: 1.22 to 1.64%); format: functional
A-375 [16] = assay: Induction of apoptosis in human A375 cells assessed as late apoptotic cells at 3 uM after 36 hrs by Annexin V-FITC/propidium iodide staining based flow cytometry (reference value: 3.80 to 4.61%); format: functional
A-375 [17] = assay: Induction of apoptosis in human A375 cells assessed as viable cells at 3 uM after 36 hrs by Annexin V-FITC/propidium iodide staining based flow cytometry (reference value: 90.6 to 94.3%); format: functional; conditions: A-375, 36 h, read-out: Activity
A-375 [18] = assay: Cell cycle arrest in human A375 cells assessed as accumulation at S phase at 1 uM after 24 hrs by propidium iodide staining-based flow cytometry (reference value: 20.08 to 31.09%); format: functional
A-375 [19] = assay: Cell cycle arrest in human A375 cells assessed as accumulation at G1 phase at 3 uM after 24 hrs by propidium iodide staining-based flow cytometry (reference value: 59.02 to 60.22%); format: functional
A-375 [20] = assay: Cell cycle arrest in human A375 cells assessed as accumulation at S phase at 3 uM after 24 hrs by propidium iodide staining-based flow cytometry (reference value: 20.08 to 31.09%); format: functional
A-375 [21] = assay: Cell cycle arrest in human A375 cells assessed as accumulation at G2/M phase at 3 uM after 24 hrs by propidium iodide staining-based flow cytometry (reference value: 7.91 to 21.07%); format: functional
A-375 [22] = assay: Cell cycle arrest in human A375 cells assessed as accumulation at G1 phase at 10 uM after 24 hrs by propidium iodide staining-based flow cytometry (reference value: 59.02 to 60.22%); format: functional
A-375 [23] = assay: Cell cycle arrest in human A375 cells assessed as accumulation at S phase at 10 uM after 24 hrs by propidium iodide staining-based flow cytometry (reference value: 20.08 to 31.09%); format: functional
A-375 [24] = assay: Cell cycle arrest in human A375 cells assessed as accumulation at G2/M phase at 10 uM after 24 hrs by propidium iodide staining-based flow cytometry (reference value: 7.91 to 21.07%); format: functional
A-375 [25] = assay: Cell cycle arrest in human A375 cells assessed as accumulation at G1 phase at 3 uM after 12 hrs by propidium iodide staining-based flow cytometry (reference value: 59.02 to 60.22%); format: functional
A-375 [26] = assay: Cell cycle arrest in human A375 cells assessed as accumulation at S phase at 3 uM after 12 hrs by propidium iodide staining-based flow cytometry (reference value: 20.08 to 31.09%); format: functional
A-375 [27] = assay: Cell cycle arrest in human A375 cells assessed as accumulation at G2/M phase at 3 uM after 12 hrs by propidium iodide staining-based flow cytometry (reference value: 7.91 to 21.07%); format: functional
A-375 [28] = assay: Cell cycle arrest in human A375 cells assessed as accumulation at G1 phase at 3 uM after 36 hrs by propidium iodide staining-based flow cytometry (reference value: 59.02 to 60.22%); format: functional
A-375 [29] = assay: Cell cycle arrest in human A375 cells assessed as accumulation at S phase at 3 uM after 36 hrs by propidium iodide staining-based flow cytometry (reference value: 20.08 to 31.09%); format: functional
A-375 [30] = assay: Cell cycle arrest in human A375 cells assessed as accumulation at G2/M phase at 3 uM after 36 hrs by propidium iodide staining-based flow cytometry (reference value: 7.91 to 21.07%); format: functional
A-375 [31] = assay: Induction of apoptosis in human A375 cells assessed as reduction in mitochondrial membrane potential up to 8 uM after 12 hrs using JC-1 staining-based flow cytometry; format: functional, cell-based
A-375 [32] = assay: Induction of apoptosis in human A375 cells at 3 uM by Annexin V-FITC/propidium iodide staining based flow cytometry; format: functional, cell-based; conditions: TDE = time-dependent effect
A-375 [33] = assay: Cell cycle arrest in human A375 cells assessed as accumulation at G1 phase after 24 hrs by propidium iodide staining-based flow cytometry; format: functional

Work on `COc1ccc(-n2cc(NC(=O)Cn3ccc(-c4cccc(Cl)c4)n3)cn2)cc1` yielded an IC50 (HT-29) of 2.17 µM, an IC50 (A-375 [1]) of 0.96 µM and an IC50 [2] of 10.2 µM. For the same compound, the Activity (A-375 [3]) was 4.51%, the Activity (A-375 [4]) was 1.92% and the viability at 1 µM (A-375 [5]) was 79.5%. For the same compound, the Activity (A-375 [6]) was 2.89 - 4.99%, the Activity (A-375 [7]) was 19.1 - 29.2% and the Activity (A-375 [8]) was 3.01 - 3.25%. It also gave a viability at 3 µM (A-375 [9]) of 64.7 to 72.9%, an Activity (A-375 [10]) of 7.54% and an Activity (A-375 [11]) of 37.5%. The Activity (A-375 [12]) was 1.81%, the Activity (A-375 [13]) was 9.77% and the Activity (A-375 [14]) was 19.7%. The Activity (A-375 [15]) was 5.22%, the Activity (A-375 [16]) was 59.7% and the viability at 3 µM (A-375 [17]) was 32.8%. The Activity (A-375 [18]) was 29.07%, the Activity (A-375 [19]) was 40.19 - 43.48% and the Activity (A-375 [20]) was 43.96 - 45.74%. The Activity (A-375 [21]) was 9.69 - 9.82%, the Activity (A-375 [22]) was 39.32% and the Activity (A-375 [23]) was 47.03%. It also gave an Activity (A-375 [24]) of 10.95%, an Activity (A-375 [25]) of 51.08% and an Activity (A-375 [26]) of 35.98%. For the same compound, the Activity (A-375 [27]) was 11.44%, the Activity (A-375 [28]) was 35.56% and the Activity (A-375 [29]) was 52.38%. The Activity (A-375 [30]) was 10.06%, the Activity (A-375 [31]) was “Active” and the Activity (A-375 [32]) was “Tde”. For the same compound, the Activity (A-375 [33]) was “Dose-dependent effect”.
